Data published in patent US3972882A, “Sym.-triazine carbamates” (Toyama Chemical Co., Ltd., priority 1973, dated 1976).
Where two headings read alike, the source gives them in different places.

How the values were obtained:
[1] = tested on: carregeenin oedema; assay: Anti-carregeenin oedema activity (Winter method); type: in vivo, male rats
Source text: Anti-carregeenin oedema activity [According to the Winter method [Proc. Soc. exp. Biol. Med., 111 544 (1962)], a test compound suspended in the solution including 0.3 % of Tween-80 (a trade name of Atlas Powder Co., U.S.A.) was orally administered to a group of 5 male rats weighing 120 to 140 g.]
*1 Maximum oedema inhibition.
*2 Average oedema inhibition from 2 hrs to 5 hrs after the administration

[2] = tested on: acetic acid-induced writhing; assay: Analgesic activity by the acetic acid-induced writhing test (K. Takagi et al. method); type: in vivo, ddY male mice
Source text: Analgesic activity by the acetic acid-induced writhing test [According to the K. Takagi et al. method [Journal of the Pharmaceutical Society of Japan, 78 553 (1958)], a test compound suspended in the solution including 0.5 % of Tween-80 was orally administered to a group of 8 ddY male mice weighing 20 to 24 g.]

[3] = toxicity test (LD50); details: mouse, in vivo, mice
Source text: Therefore, the sym.-triazines of this invention are useful as an anti-inflammatory agent and analgesics.

[4] = Mus musculus, po, read-out: ED50

Row | Compound | Inhibition of oedema, Peak (maximum oedema inhibition) ([1]; 70 mg/kg p.o.) [%] | Inhibition of oedema, time of Peak ([1]; 70 mg/kg p.o.) [h] | Inhibition of oedema, Mean (average oedema inhibition from 2 hrs to 5 hrs after the administration) ([1]; 70 mg/kg p.o.) [%] | Inhibition of oedema, Peak (maximum oedema inhibition) ([1]; 200 mg/kg p.o.) [%] | Inhibition of oedema, time of Peak ([1]; 200 mg/kg p.o.) [h] | Inhibition of oedema, Mean (average oedema inhibition from 2 hrs to 5 hrs after the administration) ([1]; 200 mg/kg p.o.) [%] | Inhibition of oedema, Peak (maximum oedema inhibition) ([1]; 500 mg/kg p.o.) [%] | Inhibition of oedema, time of Peak ([1]; 500 mg/kg p.o.) [h] | Inhibition of oedema, Mean (average oedema inhibition from 2 hrs to 5 hrs after the administration) ([1]; 500 mg/kg p.o.) [%] | Inhibition (writhing) ([2]; 100 mg/kg p.o.) [%] | ED50 [2, 4] [mg/kg] | Inhibition (writhing) ([2]; 33.3 mg/kg p.o.) [%] | other results
1 | COC(=O)Nc1nc(OC)nc(OC)n1 [No. 1, methyl 2,4-dimethoxy-sym.-triazinylcarbamate] | 51.0 | 2 | 44.6 | 64.0 | 2 | 49.5 | 61.4 | 2 | 52.8 | 16.3 | > 300 | – | Inhibition (writhing) ([2]; 300 mg/kg p.o.): 34.7%
2 | COC(=S)Nc1nc(OC)nc(OC)n1 [No. 3, methyl 2,4-dimethoxy-sym.-triazinylthioncarbamate] | 37.2 | 2 | 24.7 | 68.8 | 2 | 46.7 | 78.3 | 2 | 61.0 | 77.2 | 8 | 69.4 | LD50 ([3]; ip, read-out: LD50 i.p.): 500 mg/kg; LD50 ([3]; po, read-out: LD50 p.o.): 1050 mg/kg; Inhibition (writhing) ([2]; 3.7 mg/kg p.o.): 11.9%; Inhibition (writhing) ([2]; 11.1 mg/kg p.o.): 67.9%
3 | CCOC(=S)Nc1nc(OC)nc(OC)n1 [compound 4] | 23.9 | 2 | 21.8 | 45.9 | 2 | 35.4 | 64.5 | 2 | 50.6 | 96.9 | 6.6 | 94.4 | LD50 ([3]; ip, read-out: LD50 i.p.): 490 mg/kg; LD50 ([3]; po, read-out: LD50 p.o.): 1020 mg/kg; Inhibition (writhing) ([2]; 3.7 mg/kg p.o.): 7.6%; Inhibition (writhing) ([2]; 11.1 mg/kg p.o.): 89.4%
4 | CCOC(=S)Nc1nc(O)nc(O)n1 [compound 10] | – | – | – | – | – | – | 13.0 | 2 | – | – | – | – | –
5 | ethyl 2,4-dihydroxy-sym.-triazinylthioncarbamate [No. 10] | – | – | – | – | – | – | 17.5 | 2 | – | – | – | – | –
6 | ethyl 2,4-dimethoxy-sym.-triazinyldithiocarbamate [No. 7] | – | – | – | – | – | – | 38.0 | 2 | 18.1 | 68.4 | – | 16.5 | ED50 ([2]; p.o.): 67.5 mg/kg
7 | ethyl 2,4-dimethoxy-sym.-triazinylthiolcarbamate [No. 11] | – | – | – | – | – | – | – | – | – | 2.9 | – | – | Inhibition (writhing) ([2]; 300 mg/kg p.o.): 50.3%; ED50 ([2]; p.o.): 300 mg/kg
8 | methyl 2,4-diethoxy-sym.-triazinylthioncarbamate [No. 8] | – | – | – | – | – | – | 16.3 | 3 | – | – | – | – | –
9 | methyl 2,4-diphenoxy-sym.-triazinylthioncarbamate [No. 9] | – | – | – | 27.1 | 5 | 17.6 | – | 2 | – | – | – | – | Inhibition of oedema, Mean (average oedema inhibition from 2 hrs to 5 hrs after the administration) ([1]; 500 mg/kg p.o., listed as 7): 27.6%; Inhibition of oedema, Mean (average oedema inhibition from 2 hrs to 5 hrs after the administration) ([1]; 500 mg/kg p.o., listed as 8): 23.5%; Inhibition of oedema, Peak (maximum oedema inhibition) ([1]; 500 mg/kg p.o., listed as 7): 37.4%; Inhibition of oedema, Peak (maximum oedema inhibition) ([1]; 500 mg/kg p.o., listed as 8): 32.2%
